Assay results reported in EP2934524B1, “PENETHAMATE VETERINARY INJECTABLE FORMULATIONS” (Alleva Animal Health Limited, priority 2012, dated 2014).

How the values were obtained:
[1] = Estimated solubility and discolouration of penethamate in organic solvents; type: physicochemical; conditions: Solketal, propylene glycol, glycerol formal and DGMEE
Source text: Solubility of penethamate was estimated at the concentrations of 0.2% w/w and 1.0% w/w, in the following solvents: glycerine, Solketal, polyethylene glycol 200 (PEG 200), diethylene glycol butyl ether (DGBE), propylene glycol (PG), glycofural, diethylene glycol monomethyl ether (DGME), diethylene glycol methyl ethyl ether (DGMEE), dimethyl isosorbide (DMI), 2-pyrrolidone (2-pyrol), N-methyl-2-pyrrolidone (NMP), dimethyl acetamide (DMA), glycerol formal (GF), benzyl alcohol (BA), ethyl lactate and dimethyl sulfoxide (DMSO).

[2] = following injection, equivalent dose; cited from earlier work

discolouration in organic solvent ([1]; 0.2% w/w and 1.0% w/w in glycerine): no discolouration
solubility in organic solvent ([1]; estimated at 0.2% w/w and 1.0% w/w in glycerine): minimal solubility
SMILES: CCN(CC)CCOC(=O)[C@@H]1N2C(=O)[C@@H](NC(=O)Cc3ccccc3)[C@H]2SC1(C)C [penethamate hydriodide, 2-(diethylamino)ethyl (2S,5R,6R)-3,3-dimethyl-7-oxo-6-[(2-phenylacetyl)amino]-4-thia-1-azabicyclo[3.2.0] heptane-2-carboxylate]
levels of penicillin in the milk relative to other benzyl-penicillin preparations [2]: about 10 times higher
